Test results reported in patent US6610689B2, “HIV protease inhibitors based on amino acid derivatives” (priority 2001, dated 2003).
pKi: −log10 of the molar value. Counter-ions that a name gives are not always drawn. Like-named read-outs stand apart in the source and are kept apart here.

Target: T1, HIV protease (Human immunodeficiency virus type 1 group M subtype B, UniProt P04585)
T1 construct: A third viral enzyme known as protease then cleaves the polyproteins
Assay: Enzymatic Assay for Determining the Inhibition Constant (Ki) of Synthetic Compounds Targeting the HIV Protease (fluorometric FRET assay)
Format: biochemical
In short: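 Ki obtained via the Henderson equation from enzyme velocities with and without compound, accounting for substrate concentration and Km. Activity followed by FRET fluorescence from cleavage of a substrate flanked by EDANS donor and DABCYL acceptor.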

[1] = Table 1, compounds of formula I, read-out: Ki (anti-protease activity)

Row | Compound | pKi | further results
1 | Cc1ccc(S(=O)(=O)N(CC(C)C)[C@H](CO)CCCCNC(=O)CN(Cc2ccccc2)c2ccccc2)cc1 [Example 156, (2S) 2-N-Isobutyl-2-N-(4-methylbenzenesulfonyl)-6-N-(N′α-benzyl-N′α-phenylglycyl)-2,6-diaminohexanol] | 8.12 | 
2 | CC(=O)N[C@@H](Cc1c[nH]c2ccccc12)C(=O)NCCCC[C@@H](CO)N(CC(C)C)S(=O)(=O)c1ccc(N)cc1 [Example 168, (2S,2′S) 2-N-(4-Aminobenzenesulfonyl)-2-N-isobutyl-6-N-(N′α-acetyl-S-tryptophanyl)-2,6-diaminohexanol] | 8.42 | 
3 | Cc1ccc(S(=O)(=O)NC(Cc2c[nH]c3ccccc23)C(=O)NCCCCC(C(=O)OCC(O)CO)N(CC(C)C)S(=O)(=O)c2ccc(C)cc2)cc1 [Example 45, Nα-Isobutyl-Nα-(4-methylbenzenesulfonyl)-Nε-[N′α-(4-methylbenzenesulfonyl)-L-tryptophanyl]-L-lysine 2,3-Dihydroxypropyl Ester] | < 6.52 | 
4 | Cc1ccc(S(=O)(=O)N(CC(C)C)[C@@H](CCCCNC(=S)[C@H](Cc2c[nH]c3ccccc23)NS(=O)(=O)c2ccccc2)C(=O)O)cc1 [Example 74, Nα-Isobutyl-Nα-(4-methylbenzenesulfonyl)-Nε-(N′α-benzenesulfonyl-L-thiotryptophanyl)-L-lysine] | 8.32 | 
5 | Cc1ccc(S(=O)(=O)N(CC(C)C)[C@@H](CCCCNC(=O)CN(C)c2ccccc2)C(=O)O)cc1 [Example 115, Nα-Isobutyl-Nα-(4-methylbenzenesulfonyl)-Nε-(N′α-methyl-N′α-phenylglycyl)-L-lysine] |  | pKi [1]: 7.92
6 | Cc1ccc(S(=O)(=O)N(CC(C)C)[C@@H](CCCCNC(=O)CNc2cnc3ccccc3c2)C(=O)O)cc1 [Example 113, Nα-Isobutyl-Nα-(4-methylbenzenesulfonyl)-Nε-[N′α-(3-quinolyl)glycyl]-L-lysine] | 7.92 | 
7 | COc1ccc(CC(=O)N[C@@H](Cc2c[nH]c3ccccc23)C(=O)NCCCC[C@@H](CO)N(CC(C)C)S(=O)(=O)c2ccc(C)cc2)cc1 [Example 165, (2S,2′S) 2-N-Isobutyl-2-N-(4-methylbenzenesulfonyl)-6-N-[N′α-(4-methoxyphenylacetyl)-S-tryptophanyl]-2,6-diaminohexanol] | 8.96 | 
8 | COc1ccc(S(=O)(=O)N(CC(C)C)[C@H](CO)CCCCNC(=O)[C@@H](N)Cc2c[nH]c3ccccc23)cc1 [Example 146, (2S,2′S) 2-N-Isobutyl-2-N-(4-methoxybenzenesullfonyl)-6-N-(S-tryptophanyl)-2,6-diaminohexanol Trifluoroacetic Acid Salt] |  | pKi [1]: 7.82
9 | COC(=O)[C@H](CCCCNC(=S)[C@H](Cc1c[nH]c2ccccc12)NS(=O)(=O)c1ccc(C)cc1)N(CC(C)C)S(=O)(=O)c1ccc(C)cc1 [Example 75, Nα-Isobutyl-Nα-(4-methylbenzenesulfonyl)-Nε-[N′α-(4-methylbenzenesulfonyl)-L-thiotryptophanyl]-L-lysine Methyl Ester] | < 6.52 | 
10 | CSCC[C@H](N)C(=O)NCCCC[C@@H](C(=O)O)N(CC(C)C)S(=O)(=O)c1ccc(C)cc1 [Example 89, Nα-Isobutyl-Nα-(4-methylbenzenesulfonyl)-Nε-(L-methionyl)-L-lysine] | 7.48 | 
11 | Nα-Isobutyl-Nα-(4-methylbenzenesulfonyl)-Nε-[N′α-(4-methylbenzenesulfonyl)-L-phenylalanyl-N-cyanoamidine]-L-lysine [Example 98] |  | pKi (Anti-protease activity of Ne-amino acid substituted L-lysine derivatives and analogs of formula I, read-out: Ki): 8.29
12 | Cc1ccc(S(=O)(=O)N(CC(C)C)[C@H](CO)CCCCNC(=O)[C@H](Cc2c[nH]c3ccccc23)NS(=O)(=O)c2ccccc2)cc1 [Example 128, (2S,2′S) 2-N-Isobutyl-2-N-(4-methylbenzenesuilfonyl)-6-N-(N′α-benzenesulfonyi-S-tryptophanyl)-2,6-diaminohexanol] |  | pKi [1]: 9.02
13 | Cc1ccc(S(=O)(=O)N(CC(C)C)[C@H](CO)CCCCNC(=O)[C@H](Cc2ccccc2)NS(=O)(=O)c2ccc(C(F)(F)F)cc2)cc1 [Example 127, (2S,2′S) 2-N-Isobutyl-2-N-(4-methylbenzenesulfonyl)-6-N-[N′α-(4-trifluoromethylbenzenesulfonyl)-S-phenylalanyl]-2,6-diaminohexanol] | 6.79 | 
14 | Cc1ccc(S(=O)(=O)N[C@@H](Cc2c[nH]c3ccccc23)C(=O)NCCCC[C@@H](C=O)N(CC(C)C)S(=O)(=O)c2ccc(C)cc2)cc1 [Example 116, (2S,2′S) 2-N-Isobutyl-2-N-(4-methylbenzenesulfonyl)-6-N-[N′α-(4-methylbenzenesulfonyl)-S-tryptophanyl]-2,6-diaminohexanal] |  | pKi [1]: < 6.52
15 | Cc1ccc(S(=O)(=O)N(CC(=O)NCCCC[C@@H](CO)N(CC(C)C)S(=O)(=O)c2ccc(C)cc2)Cc2ccccc2)cc1 [Example 159, (2S) 2-N-Isobutyl-2-N-(4-methylbenzenesulfonyl)-6-N-[N′α-benzyl-N′α-(4-methylbenzenesulfonyl)glycyl]-2,6-diaminohexanol] | 7.00 | 
16 | CC(C)CN([C@H](CO)CCCCNC(=O)[C@H](Cc1ccccc1)NS(=O)(=O)c1ccc([N+](=O)[O-])cc1)S(=O)(=O)c1ccc(N)cc1 [Example 194, (2S,2′S) 2-N-(4-Aminobenzenesulfonyl)-2-N-isobutyl-6-N-[N′α-(4-nitrobenzenesulfonyl)-S-phenylalanyl]-2,6-diaminohexanol] | 7.07 | 
17 | COc1ccc(CC(=O)N[C@@H](Cc2c[nH]c3ccccc23)C(=O)NCCCC[C@@H](C(=O)O)N(CC(C)C)S(=O)(=O)c2ccc(C)cc2)cc1 [Example 164, Nα-Isobutyl-Nα-(4-methylbenzenesulfonyl)-Nε-[N′α-(4-methoxyphenylacetyl)-L-tryptophanyl]-L-lysine] | 9.49 | 
18 | Cc1ccc(S(=O)(=O)N[C@@H](Cc2ccccc2)C(=O)NCCC[C@@H](C(=O)O)N(CC(C)C)S(=O)(=O)c2ccc(C)cc2)cc1 [Example 154, Nα-Isobutyl-Nα-(4-methylbenzenesulfonyl)-Nε-[N′α-(4-methylbenzenesulfonyl)-L-phenylalanyl]-L-ornithine] | < 6.52 | 
19 | COC(=O)[C@H](CCCCNC(=S)[C@H](Cc1ccccc1)NS(=O)(=O)c1ccc(C)cc1)N(CC(C)C)S(=O)(=O)c1ccc(C)cc1 [Example 71, Nα-Isobutyl-Nα-(4-methylbenzenesulfonyl)-Nε-[N′α-(4-methylbenzenesulfonyl)-L-thiophenylalanyl]-L-lysine Methyl Ester] | < 6.52 | 
20 | CC(=O)Nc1ccc(S(=O)(=O)N[C@@H](Cc2ccccc2)C(=O)NCCCC[C@@H](C(=O)O)N(CC(C)C)S(=O)(=O)c2ccc(N)cc2)cc1 [Example 56, Nα-(4-Aminobenzenesulfonyl)-Nα-isobutyl-Nε-[N′α-(4-acetylaminobenzenesulfonyl)-L-phenylalanyl]-L-lysine] | 8.72 | 
21 | COC(=O)[C@H](CCCCNC(=O)[C@H](Cc1c[nH]c2ccccc12)NC(=O)OC(C)(C)C)N(CC1CCCC1)S(=O)(=O)c1ccc(OC)cc1 [Example 150, Nα-Cyclopentylmethyl-Nα-(4-methoxybenzenesulfonyl)-Nε-(N′α-tert-butoxycarbonyl-L-tryptophanyl)-L-lysine Methyl Ester] | < 6.52 | 
22 | Cc1ccc(S(=O)(=O)N(CC(C)C)[C@@H](CCCCNC(=O)[C@H](CC(N)=O)NC(=O)C(C)(C)C)C(=O)O)cc1 [Example 62, Nα-Isobutyl-Nα-(4-methylbenzenesulfonyl)-Nε-(N′α-pivaloyl-L-asparagyl)-L-lysine] | 6.67 | 
23 | Cc1ccc(S(=O)(=O)N(CC(C)C)[C@H](CO)CCCCNC(=O)[C@H](Cc2c[nH]c3ccccc23)NC(=O)C(C)(C)C)cc1 [Example 117, (2S,2′S) 2-N-Isobutyl-2-N-(4-methylbenzenesulfonyl)-6-N-(N′α-pivaloyl-S-tryptophanyl)-2,6-diaminohexanol] | 9.37 | 
24 | Cc1ccc(CSC[C@H](N)C(=O)NCCCC[C@@H](C(=O)O)N(CC(C)C)S(=O)(=O)c2ccc(C)cc2)cc1 [Example 90, Nα-Isobutyl-Nα-(4-methylbenzenesulfonyl)-Nε-[S-(4-methylbenzyl)-L-cysteinyl]-L-lysine] | 7.54 | 
25 | Cc1ccc(S(=O)(=O)N[C@H](Cc2ccccc2)C(=O)NCCCC[C@H](C(=O)O)N(CC(C)C)S(=O)(=O)c2ccc(C)cc2)cc1 [Example 66, Nα-Isobutyl-Nα-(4-methylbenzenesulfonyl)-Nε-[N′α-(4-methylbenzenesulfonyl)-D-phenylalanyl]-D-lysine] | < 6.52 | 
26 | Cc1ccc(S(=O)(=O)N(CC(C)C)[C@@H](CCCCNC(=O)[C@@H](N)Cc2ccc(OCc3ccccc3)cc2)C(=O)O)cc1 [Example 94, Nα-Isobutyl-Nα-(4-methylbenzenesulfonyl)-Nε-(O-benzyl-L-tyrosyl)-L-lysine] | 6.75 | 
27 | Cc1ccc(S(=O)(=O)N(CC(C)C)[C@@H](CCCCNC(=O)[C@H](CC(C)C)NS(=O)(=O)c2ccc([N+](=O)[O-])cc2)C(=O)O)cc1 [Example 16, Nα-Isobutyl-Nα-(4-methylbenzenesulfonyl)-Nε-[N′α-(4-nitrobenzenesulfonyl)-L-leucyl]-L-lysine] | 7.47 | 
28 | Cc1ccc(S(=O)(=O)N(CC(C)C)[C@H](CO)CCCCNC(=O)[C@H](Cc2ccc(CNC(=O)OCC3c4ccccc4-c4ccccc43)cc2)NC(=O)OC(C)(C)C)cc1 [Example 144, (2S,2′S) 2-N-Isobutyl-2-N-(4-methylbenzenesulfonyl)-6-N-[N′α-tert-butoxycarbonyl-S-4-(9-fluorenemethoxycarbonylaminomethyl)phenylalanyl]-2,6-diaminohexanol] |  | pKi [1]: < 6.52
29 | CSCC[C@H](NC(=O)OC(C)(C)C)C(=O)NCCCC[C@@H](C(=O)O)N(CC(C)C)S(=O)(=O)c1ccc(C)cc1 [Example 82, Nα-Isobutyl-Nα-(4-methylbenzenesulfonyl)-Nε-(N′α-tert-butoxycarbonyl-L-methionyl)-L-lysine] | 7.19 | 
30 | CC(C)CN([C@H](CO)CCCCNC(=O)CN(Cc1ccccc1)c1ccccc1)S(=O)(=O)c1ccc(N)cc1 [Example 182, (2S) 2-N-(4-Aminobenzenesulfonyl)-2-N-isobutyl-6-N-(N′α-benzyl-N′α-phenylglycyl)-2,6-diaminohexanol] | 8.62 | 
